US8242115B2, “Materials and methods to potentiate cancer treatment” (Luitpold Pharmaceuticals, Inc., priority 2000, dated 2012)
Read-outs that look alike come from different tables or passages of the source.

What was measured:
human DNA-PK = target: T1, human DNA-PK (Homo sapiens, UniProt P78527); assay: Standard DNA-PK assay (p53 peptide phosphorylation); assay type: biochemical
T1 construct: The frozen HeLa cell pellet was thawed at 37° C. and immediately centrifuged; endogenous in cells; host or cells: HeLa S3 cells (ATCC CCL-2.2); Endogenous enzyme purified via S100-2 fraction, Q-Sepharose FF and SP-Sepharose FF (fraction IV)
Protocol: Reactions were carried out at room temperature. Reactions were started by addition of ATP and stopped by application to phosphocellulose paper. Reaction products spotted onto phosphocellulose paper were washed five times with a total volume of at least 250 mL 10% acetic acid or 150 mM phosphoric acid. The paper was air dried and radioactivity was determined in a Beckman LS6000IC scintillation counter.

[1] = system: human colon carcinoma cell line HCT116; assay: cells; assay type: cell-based; details: for GI50: Homo sapiens
Protocol: Cells plated at a density of 5,000 to 20,000 per well in 96-well microtiter plates were grown in RMPI 1640 containing 10% FBS, 100 U/mL penicillin and 100 μg/mL streptomycin, for 18 h at 37° C. in a humidified incubator with 5% CO2. Cells tested included ACHN, 786-0, HCT-116, SW620, SK-MEL-5, SK-MEL-28, A549, H322, OVCAR-3, SK-OV-3, MCF-7, MDA-MB-231, MOLT4, HL60, SNB-19, PC-3. Cells were treated with media containing chemotherapeutic drugs alone or with media containing chemotherapeutic drugs and a DNA-PK inhibitor of the invention, 1-(2-hydroxy-4-morpholin-4-yl-phenyl)-ethanone. Cells were incubated for two days before growth was measured using a tetrazolium dye assay (MTS). Chemotherapeutic drugs included bleomycin etoposide, vinblastine, doxorubicin, paclitaxel, cisplatin, chlorambucil, cyclophosphamide, 5-fluorouracil, cytosine-arabinoside, 6-mercaptoguanine and methotrexate (all purchased from Sigma). The drug concentration necessary to inhibit cell growth to 50% of untreated control cells was defined as the GI50.

[2] = system: Colon carcinoma cells (HCT116)
[3] = read-out: IC50 (nM) DNA-PK Assay
[4] = with 1-(2-hydroxy-4-morpholin-4-yl-phenyl)-ethanone

Row | Molecule | IC50 (human DNA-PK; [3]) [nM] | also measured
1 | Nc1cc(NN2CCOCC2)ccc1[N+](=O)[O-] [Example 16, N^1-Morpholin-4-yl-4-nitrobenzene-1,3-diamine] | 1000 | 
2 | Nc1cc(N2CCNCC2)ccc1[N+](=O)[O-] [Example 20, 2-Nitro-5-piperazin-1-yl-phenylamine] | 10000 | 
3 | O=C(O)c1ccc(N2CCOCC2)cc1O [Example 29, 2-Hydroxy-4-morpholin-4-yl-benzoic Acid] | 500 | 
4 | COC(=O)c1ccc(N2CCOCC2)cc1O [Example 30, 2-Hydroxy-4-morpholin-4-yl-benzoic Acid Methyl Ester] | 500 | 
5 | O=[N+]([O-])c1ccc(N2CCOCC2)cc1O [Example 33, 5-Morpholin-4-yl-2-nitro-phenol] | 2000 | 
6 | CCC(=O)c1ccc(N2CCOCC2)cc1O [Example 35, 1-(2-Hydroxy-4-morpholin-4-yl-phenyl)-propan-1-one] | 120 | 
7 | CC(C)CC(=O)c1ccc(N2CCOCC2)cc1O [Example 36, 1-(2-Hydroxy-4-morpholin-4-yl-phenyl)-3-methyl-butan-1-one] | 150 | 
8 | O=C(c1ccccc1)c1ccc(N2CCOCC2)cc1O [Example 37, 1-(2-Hydroxy-4-morpholin-4-yl-phenyl)-1-phenyl-methanone] | 120 | 
9 | O=C(c1ccc(N2CCOCC2)cc1O)C(F)(F)F [Example 38, 2,2,2-Trifluoro-1-(2-hydroxy-4-morpholin-4-yl-phenyl)-ethanone] | 250 | 
10 | CC(=O)c1ccc(N2CCOCC2)c(Cl)c1O [Example 42 B, 1-(3-Chloro-2-hydroxy-4-morpholin-4-yl-phenyl)-ethanone] | 14000 | 
11 | CC(=O)c1cc(F)c(N2CCOCC2)cc1O [Example 43 C, 1-(5-Fluoro-2-hydroxy-4-morpholin-4-yl-phenyl)-ethanone] | 1500 | 
12 | CC(=O)c1ccc(N2CCOCC2)c(F)c1O [Example 43 D, 1-(3-Fluoro-2-hydroxy-4-morpholin-4-yl-phenyl)-ethanone] | 240 | 
13 | COc1cc(N2CCOCC2)ccc1C=O [Example 46 A, 2-Methoxy-4-morpholin-4-yl-benzaldehyde] | 10000 | 
14 | COC(=O)c1cc(N2CCOCC2)ccc1O [Example 47, 2-Hydroxy-5-morpholin-4-yl-benzoic Acid Methyl Ester] | 40000 | 
15 | O/N=C/c1ccc(N2CCOCC2)cc1O [Example 48, 2-((Hydroxyimino)methyl)-5-morpholin-4-yl-phenol] | 1000 | 
16 | N/N=C/c1ccc(N2CCOCC2)cc1O [Example 49, 2-Hydrazonomethyl-5-morpholin-4-yl-phenol] | 1000 | 
17 | O=C(O)C(F)(F)F.O=C(O)c1ccc(CN2CCOCC2)cc1O [Example 52, 2-Hydroxy-4-morpholin-4-ylmethyl-benzoic Acid Trifluoroacetate] |  | melting point: 138 to 146 °C
18 | O=C(O)CCCc1ccc(N(CCCl)CCCl)cc1 [chlorambucil] |  | GI50 ([1]; HCT-116, read-out: GI50, chemotherapeutic drug alone): 120 µM; GI50 ([1]; HCT-116, read-out: GI50, in the presence of DNA-PK inhibitor): 14 µM
19 | C[C@@]12c3ccc4c(c3C(=O)c3occ(c31)C(=O)C[C@H]2O)CCC4=O [demethoxyviridin, reference compound] |  | IC50 (human DNA-PK; standard kinase reaction, read-out: IC50, enzyme activity inhibited): 5 nM
20 | COc1cc([C@@H]2c3cc4c(cc3[C@@H](O[C@@H]3O[C@@H]5CO[C@@H](C)O[C@H]5[C@H](O)[C@H]3O)[C@H]3COC(=O)[C@H]23)OCO4)cc(OC)c1O [etoposide, reference compound] |  | GI50 ([1]; HCT-116, with 1-(2-hydroxy-4-morpholin-4-yl-phenyl)-ethanone, read-out: GI50, in the presence of DNA-PK inhibitor): 14 µM; GI50 ([1]; HCT-116, without DNA-PK inhibitor, read-out: GI50, chemotherapeutic drug alone): 120 µM; LD50 of etoposide without DNA-PK inhibitor ([2]; 24 h etoposide): 1.1 µM; LD90 of etoposide without DNA-PK inhibitor ([2]; 24 h etoposide): 2.9 µM; LD50 of etoposide with DNA-PK inhibitor [2, 4]: 0.075 µM; LD90 of etoposide with DNA-PK inhibitor [2, 4]: 0.9 µM
21 | bleomycin |  | GI50, in the presence of DNA-PK inhibitor ([1]; 100 μM 1-(2-hydroxy-4-morpholin-4-yl-phenyl)-ethanone): 3×10^−2 units/mL; GI50, chemotherapeutic drug alone ([1]; without DNA-PK inhibitor): 2×10^−1 units/mL
